One test relates to edema in left hind paw. The test can be described thus: Carrageenin-induced hind paw edema in rats, test compound orally 1 hour before (Winter's method), anti-inflammatory activity. The class given is in vivo, Male Wistar rats. Particulars: 6 mg/kg oral, one hour before carrageenin; paw volume 3 hours after carrageenin. The procedure: Anti-inflammatory activity was evaluated by the Winter's method [Journal of Pharmacology and Experimental Therapeutics, volume 141, page 369(1963)]. Male Wistar rats (group of 6 animals) were administered orally the test compounds (dose: 6 mg/kg) one hour before inducing the edema in left hind paw with 0.1 ml of a 1% carrageenin-saline suspension. Volumes of the hind paws were determined with a volume meter 3 hours after the injection of carrageenin. Indomethacin (Control 1) and 4-vinylphenylacetic acid (Control 2) were used as controls.
(In general: The carrageenan paw model is a standard test of acute inflammation.)
Compound `COc1ccc2c(c1)c(CC(=O)O)c(C)n2C(=O)c1ccc(Cl)cc1` [Control 1, Indomethacin] came in with an Inhibition of edema of 59.3%. Compound `CC(C(=O)O)c1ccc(C=C(Cl)Cl)cc1` (stereo not drawn) [ST-36, calcium 2-[4-(2,2-dichlorovinyl)phenyl]propionate] yielded an Inhibition of edema of 43.0%. On the same count and under the same terms, to `CC(C(=O)O)c1ccc(C=C(Cl)Cl)cc1` (stereo not drawn) [ST-37, Aluminum 2-[4-(2,2-dichlorovinyl)phenyl]propionate] belongs 63.1%; to `CC(C(=O)O)c1ccc(C=C(Cl)Cl)cc1` (stereo not drawn) [ST-38, morpholinium 2-[4-(2,2-dichlorovinyl)phenyl]propionate], 35.6%; to `CC(C(=O)O)c1ccc(C=C(Cl)Cl)cc1` (stereo not drawn) [ST-39, 2-Pyridylammonium 2-[4-(2,2-dichlorovinyl)phenyl]propionate], 51.4%.

Still in this test, the particulars now being: Rattus norvegicus, po, 6 mg/kg oral, one hour before carrageenin; paw volume 3 hours after carrageenin; read-out: Inhibition of edema.
Turning to `O=C(O)Cc1ccc(C=C(Cl)Cl)cc1` [ST-2, 4-(2,2-Dichlorovinyl)phenylacetic acid], the inhibition at 6 mg/kg was 63.9%. `O=C(O)Cc1cccc(C=C(Cl)Cl)c1` [ST-3, 3-(2,2-Dichlorovinyl)phenylacetic acid]: the inhibition at 6 mg/kg was found to be 31.9%. On the same count and under the same terms, to `CC(C(=O)O)c1cccc(C=C(Cl)Cl)c1` (stereo not drawn) [ST-4, 2-[3-(2,2-Dichlorovinyl)phenyl]propionic acid] belongs 32%; to `CCOC(=O)C(C)c1ccc(C=C(Cl)Cl)cc1` (stereo not drawn) [ST-5, ethyl 2-[4-(2,2-dichlorovinyl)phenyl]propionate], 46.5%. Consider `CC(C(=O)O)c1ccc(C=C(F)F)cc1` (stereo not drawn) [ST-7, 2-[4-(2,2-difluorovinyl)phenyl]propionic acid], for which the inhibition at 6 mg/kg was 48.4%.

`CC(C(=O)O)c1ccc(C=C(Cl)Cl)c(F)c1` (stereo not drawn) [ST-8, 2-[4-(2,2-dichlorovinyl)-3-fluorophenyl]propionic acid]: the inhibition at 6 mg/kg was 64.8%.

Turning to `CC(C(=O)O)c1ccc(C=C(Cl)Cl)c(Cl)c1` (stereo not drawn) [ST-9, 2-[3-Chloro-4-(2,2-dichlorovinyl)phenyl]propionic acid], the inhibition at 6 mg/kg was 58%.

Regarding `CC(CO)c1ccc(C=C(Cl)Cl)cc1` (stereo not drawn) [ST-10, 2-[4-(2,2-dichlorovinyl)phenyl]propanol], the inhibition at 6 mg/kg turned out to be 62.4%. Turning to `CC(C(N)=O)c1ccc(C=C(Cl)Cl)cc1` (stereo not drawn) [ST-11, 2-[4-(2,2-dichlorovinyl)phenyl]propionamide], the inhibition at 6 mg/kg stood at 26.5%. For `Cc1ccc(NC(=O)C(C)c2ccc(C=C(Cl)Cl)cc2)cc1` (stereo not drawn) [ST-14, N-(4-Methylphenyl)-2-[4-(2,2-dichlorovinyl)phenyl]propionamide], the inhibition at 6 mg/kg came to 33.6%. Same read-out and setting: the same measure for `CC(C(=O)Nc1ccc(Cl)cc1)c1ccc(C=C(Cl)Cl)cc1` (stereo not drawn) [ST-16, N-(4-Chlorophenyl)-2-[4-(2,2-dichlorovinyl)phenyl]propionamide]: 43.1%. On the same count and under the same terms, to `CC(C(=O)Nc1ccc(F)cc1)c1ccc(C=C(Cl)Cl)cc1` (stereo not drawn) [ST-17, N-(4-Fluorophenyl)-2-[4-(2,2-dichlorovinyl)phenyl]propionamide] belongs 40%. On the same count and under the same terms, to `CC(C(=O)Nc1ccc(C(=O)O)cc1)c1ccc(C=C(Cl)Cl)cc1` (stereo not drawn) [ST-20, 4-{2-[4-(2,2-Dichlorovinyl)phenyl]propionylamino}benzoic acid] belongs 47%; to `CC(C(=O)Nc1ccccn1)c1ccc(C=C(Cl)Cl)cc1` (stereo not drawn) [ST-22, N-(2-Pyridyl)-2-[4-(2,2-dichlorovinyl)phenyl]propionamide], 35.5%. Turning to `CCOC(=O)CNC(=O)C(C)c1ccc(C=C(Cl)Cl)cc1` (stereo not drawn) [ST-23, N-{2-[4-(2,2-Dichlorovinyl)phenyl]propionyl}glycine ethyl ester], the inhibition at 6 mg/kg came out at 35.5%. Still for that read-out and setting: the same measure for `CC(C(=O)NCC(=O)O)c1ccc(C=C(Cl)Cl)cc1` (stereo not drawn) [ST-24, N-{2-[4-(2,2-Dichlorovinyl)phenyl]propionyl}glycine]: 30%; for `CCNC(=O)C(C)c1ccc(C=C(Cl)Cl)cc1` (stereo not drawn) [ST-25, N-Ethyl-2-[4-(2,2-dichlorovinyl)phenyl]propionamide]: 37.1%. Same read-out and setting: to `CC(C(=O)NO)c1ccc(C=C(Cl)Cl)cc1` (stereo not drawn) [ST-34, 2-[4-(2,2-dichlorovinyl)phenyl]propionylhydroxamic acid] belongs 32.5%. The same measure, in the same setting: the same measure for `CC(C)=CCOC(=O)C(C)c1ccc(C=C(Cl)Cl)cc1` (stereo not drawn) [ST-41, prenyl 2-[4-(2,2-dichlorovinyl)phenyl]propionate]: 48.8%.

As to `CC(C)CCOC(=O)C(C)c1ccc(C=C(Cl)Cl)cc1` (stereo not drawn) [ST-42, Isopentyl 2-[4-(2,2-dichlorovinyl)phenyl]propionate], the inhibition at 6 mg/kg was 60.4%. Turning to `COCOC(=O)C(C)c1ccc(C=C(Cl)Cl)cc1` (stereo not drawn) [ST-43, Methoxymethyl 2-[4-(2,2-dichlorovinyl)phenyl]propionate], the inhibition at 6 mg/kg was determined as 37.1%. Still for that read-out and setting: the same measure for `CC(C(=O)OCc1ccccn1)c1ccc(C=C(Cl)Cl)cc1` (stereo not drawn) [ST-44, 2-Pyridylmethyl 2-[4-(2,2-dichlorovinyl)phenyl]propionate]: 59.8%; for `CC(=O)OC(C)OC(=O)C(C)c1ccc(C=C(Cl)Cl)cc1` (stereo not drawn) [ST-45, 1-(Acetoxy)ethyl 2-[4-(2,2-dichlorovinyl)phenyl]propionate]: 44.8%. For `CCC(=O)OCOC(=O)C(C)c1ccc(C=C(Cl)Cl)cc1` (stereo not drawn) [ST-46, Propionyloxymethyl 2-[4-(2,2-dichlorovinyl)phenyl]propionate], the inhibition at 6 mg/kg worked out at 32.2%. With `CCC(=O)OC(C)OC(=O)C(C)c1ccc(C=C(Cl)Cl)cc1` (stereo not drawn) [ST-47, 1-(Propionyloxy)ethyl 2-[4-(2,2-dichlorovinyl)phenyl]propionate], the inhibition at 6 mg/kg was 49.9%.

In the case of `CCCCCCCCCCCCCCCC(=O)OC(C)OC(=O)C(C)c1ccc(C=C(Cl)Cl)cc1` (stereo not drawn) [ST-48, 1-(Palmitoyloxy)ethyl 2-[4-(2,2-dichlorovinyl)phenyl]propionate], the inhibition at 6 mg/kg is 32.7%. On to `CC(C(=O)OC1OC(=O)c2ccccc21)c1ccc(C=C(Cl)Cl)cc1` (stereo not drawn) [ST-49, 2-Phthalidyl 2-[4-(2,2-dichlorovinyl)phenyl]propionate], for which the inhibition at 6 mg/kg worked out at 53.3%. Same read-out and setting: to `CC(C)=CCOC(=O)C(C)c1ccc(C=C(Cl)Cl)c(F)c1` (stereo not drawn) [ST-50, Prenyl 2-[4-(2,2-dichlorovinyl)-3-fluorophenyl]propionate] belongs 61.4%; to `CCOC(=O)C(C)c1ccc(C=C(Cl)Cl)c(F)c1` (stereo not drawn) [ST-55, ethyl 2-[4-(2,2-dichlorovinyl)-3-fluorophenyl]propionate], 38.2%; to `CCOC(=O)C(C)c1ccc(C=C(Cl)Cl)c(Cl)c1` (stereo not drawn) [ST-56, Ethyl 2-[3-chloro-4-(2,2-dichlorovinyl)phenyl]propionate], 39.4%. On the same count and under the same terms, the same measure for `CC(C)=CCC/C(C)=C/COC(=O)C(C)c1ccc(C=C(Cl)Cl)cc1` (stereo not drawn) [ST-58, geranyl 2-[4-(2,2-dichlorovinyl)phenyl]propionate]: 39%; for `CC(C(=O)OCCO)c1ccc(C=C(Cl)Cl)cc1` (stereo not drawn) [ST-59, 2-Hydroxyethyl 2-[4-(2,2-dichlorovinyl)phenyl]propionate]: 57.3%. The same measure, in the same setting: to `CC(C)=CCCC(C)=CCCC(C)=CCOC(=O)C(C)c1ccc(C=C(Cl)Cl)cc1` (stereo not drawn) [ST-60, Farnesyl 2-[4-(2,2-dichlorovinyl)phenyl]propionate] belongs 50.8%; to `CC(C(=O)OC1CCCCC1)c1ccc(C=C(Cl)Cl)cc1` (stereo not drawn) [ST-61, Cyclohexyl 2-[4-(2,2-dichlorovinyl)phenyl]propionate], 43.7%; to `CC(C)=CCC/C(C)=C/COC(=O)C(C)c1ccc(C=C(Cl)Cl)c(Cl)c1` (stereo not drawn) [ST-62, Geranyl 2-[3-chloro-4-(2,2-dichlorovinyl)phenyl]propionate], 43.2%.

The same test, now with this note: Rattus norvegicus, po, read-out: Inhibition of edema, 6 mg/kg oral, one hour before carrageenin; paw volume 3 hours after carrageenin.
In the case of `COc1ccc2c(c1)c(CC(=O)O)c(C)n2C(=O)c1ccc(Cl)cc1` [Control 1, Indomethacin], the inhibition at 6 mg/kg is 68.2%.

Turning to `CC(C(=O)O)c1ccc(C=C(Cl)Cl)cc1` (stereo not drawn) [ST-35, sodium 2-[4-(2,2-dichlorovinyl)phenyl]propionate], the inhibition at 6 mg/kg stood at 46%.

In the next test the test system is edema in left hind paw. As to the kind of experiment: Duration of inhibition of carrageenin-induced hind paw edema, test compound orally 1, 24 or 48 hours before inducing the edema. The class given is in vivo, Male Wistar rats. The note with it: Rattus norvegicus, po, read-out: Inhibition of edema, 1 hr. How it is done: Anti-inflammatory activity was evaluated by the Winter's method [Journal of Pharmacology and Experimental Therapeutics, volume 141, page 369(1963)]. […] Volumes of the hind paws were determined with a volume meter 3 hours after the injection of carrageenin. Indomethacin (Control 1) and 4-vinylphenylacetic acid (Control 2) were used as controls.
Following a procedure similar to that of Test example 1, the test compounds were administered orally to the rats 1, 24 or 48 hours before inducing the edema, and there was obtained a result shown in Table 2.
Consider `COc1ccc2c(c1)c(CC(=O)O)c(C)n2C(=O)c1ccc(Cl)cc1` [Control 1, Indomethacin], for which the inhibition at 3 mg/kg was 30.4%.

The test is the same for the next values; noted with them: Rattus norvegicus, po, read-out: Inhibition of edema, 24 hrs.
As for `COc1ccc2c(c1)c(CC(=O)O)c(C)n2C(=O)c1ccc(Cl)cc1` [Control 1, Indomethacin], the inhibition at 3 mg/kg is 8.1%.

Staying with this test, now noted: Rattus norvegicus, po, read-out: Inhibition of edema, 48 hrs.
As for `COc1ccc2c(c1)c(CC(=O)O)c(C)n2C(=O)c1ccc(Cl)cc1` [Control 1, Indomethacin], the inhibition at 3 mg/kg was determined as 0.8%.

Staying with this test, now noted: Rattus norvegicus; dose 1.5 mg/kg oral, 1 hr before inducing edema; read-out: Inhibition of edema, 1 hr.
For `CN1C(C(=O)Nc2ccccn2)=C(O)c2ccccc2S1(=O)=O` [Control 3, piroxicam], the inhibition at 1.5 mg/kg came to 48.6%.

The same test, now with this note: Rattus norvegicus; dose 1.5 mg/kg oral, 24 hrs before inducing edema; read-out: Inhibition of edema, 24 hrs.
As to `CN1C(C(=O)Nc2ccccn2)=C(O)c2ccccc2S1(=O)=O` [Control 3, piroxicam], the inhibition at 1.5 mg/kg worked out at 13.3%.

Still in this test, the particulars now being: Rattus norvegicus; dose 1.5 mg/kg oral, 48 hrs before inducing edema; read-out: Inhibition of edema, 48 hrs.
In the case of `CN1C(C(=O)Nc2ccccn2)=C(O)c2ccccc2S1(=O)=O` [Control 3, piroxicam], the inhibition at 1.5 mg/kg came out at 2.1%.

Staying with this test, now noted: Rattus norvegicus; dose 6 mg/kg oral, 1 hr before inducing edema; read-out: Inhibition of edema, 1 hr.
On to `CC(C)=Cc1ccc(C(C)C(=O)O)cc1` (stereo not drawn) [Control 4, 2-[4-(2,2-dimethylvinyl)phenyl]propionic acid], for which the inhibition at 6 mg/kg was 59.3%.

The same test, now with this note: Rattus norvegicus; dose 6 mg/kg oral, 24 hrs before inducing edema; read-out: Inhibition of edema, 24 hrs.
On to `CC(C)=Cc1ccc(C(C)C(=O)O)cc1` (stereo not drawn) [Control 4, 2-[4-(2,2-dimethylvinyl)phenyl]propionic acid], for which the inhibition at 6 mg/kg was -8.5%.

The same test, now with this note: Rattus norvegicus; dose 6 mg/kg oral, 48 hrs before inducing edema; read-out: Inhibition of edema, 48 hrs.
As to `CC(C)=Cc1ccc(C(C)C(=O)O)cc1` (stereo not drawn) [Control 4, 2-[4-(2,2-dimethylvinyl)phenyl]propionic acid], the inhibition at 6 mg/kg was found to be 3.7%.

Values taken from US4557871A, “Novel styrene derivatives of the general formula” (Taisho Pharmaceutical Co., Ltd., priority 1983, dated 1985).
